Assays:
sVEGFR-2 = test: Plasma sVEGFR-2 concentration (ELISA); type: in vivo, human; details: over the course of the study
Method: The effects of telatinib treatment on the plasma concentrations of sVEGFR-2, VEGF and bFGF were determined from blood samples taken at baseline, on day 14 of cycles 1, 2, 4, 6, etc. and at the final visit. Samples were analysed using the relevant quantitative enzyme-linked immunosorbent assay (ELISA) (R&D Systems Europe, Oxford, UK) according to the manufacturer's instructions. DCE-MRI was performed at baseline, on day 2 (only cycle 1), and on day 14 of cycles 1–3 to assess tumour blood flow/tumour vessel permeability in a subgroup of patients ([Morgan et al, 2003]).
(§1) To assess the biological activity of telatinib, plasma concentration analyses for the angiogenic markers VEGF, sVEGFR-2, bFGF, PDGF and […] were performed at baseline and during the course of the study. Furthermore, DCE-MRI measurements were done at baseline, on days 2 and 14 of cycle 1 and on day 14 of cycles 2 and 3. Evaluable DCE-MRI results were available for a subgroup of patients treated at dose levels of 300 mg BID or higher.

[1] = test system: human umbilical vein endothelial cells; parameters: method as in printed; details: human umbilical vein endothelial cells in vitro; background statement, ref not given; cited from earlier work
[2] = test system: H460 non-small cell lung carcinoma; parameters: method as in printed; details: H460 non-small cell lung carcinoma model; background statement, ref not given; cited from earlier work
VEGF = test: Plasma VEGF concentration (ELISA); type: in vivo, human
Method: […] Samples were analysed using the relevant quantitative enzyme-linked immunosorbent assay (ELISA) (R&D Systems Europe, Oxford, UK) according to the manufacturer's instructions. DCE-MRI was performed at baseline, on day 2 (only cycle 1), and on day 14 of cycles 1–3 to assess tumour blood flow/tumour vessel permeability in a subgroup of patients ([Morgan et al, 2003]).
as §1

Colo-205 colon carcinoma = test system: Colo-205 colon carcinoma; parameters: method as in printed; details: Colo-205 colon carcinoma model; background statement, ref not given; cited from earlier work
[3] = test system: p-glycoprotein transporter; parameters: method as in printed; details: in vitro studies; background statement, ref not given; cited from earlier work
[4] = test system: VEGFR-2 autophosphorylation; parameters: method as in printed; details: whole-cell assay in vitro; background statement, ref not given; cited from earlier work

In the case of `CNC(=O)c1cc(COc2nnc(Nc3ccc(Cl)cc3)c3ccoc23)ccn1` [telatinib], the sVEGFR-2 levels (sVEGFR-2) is listed as “dose-dependent decrease”, the VEGF-dependent proliferation [1] is listed as “inhibited” and the “tumour growth in vivo” value [2] is listed as “potent, dose-dependent reduction in tumour growth”. For the same compound, the VEGF levels (VEGF; day 21 compared to baseline) was “increased”, the VEGF plasma levels (VEGF; within 8 h after the first telatinib administration) was “dose-dependent short-term increase” and the “tumour growth in vivo” value (Colo-205 colon carcinoma) was “potent, dose-dependent reduction in tumour growth”. The “drug–drug interactions due to modulation of p-glycoprotein transporter activity” value [3] was “unlikely” and the VEGFR-2 autophosphorylation [4] was “inhibited”.
